Measurements from PubChem BioAssay AID1919017 (Molecular Pharmacology Branch, DTP, NCI, 2023).

Test system: SW1271 complex spheroids with HUVEC/MSC, growth, % test/control
Assay: Anticancer human tumor SW1271 cell line growth inhibition [AhR];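 further: spheroids exposed to agents for 7 days before readout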
Conditions: for IC50: curve of first compound; for viability, T/C: stronger effect = lower value
Description: Multicellular complex tumor spheroid response to aryl hydrocarbon receptor antagonists in combination with a variety of drugs and investigational agents in selected tumor cell lines
The current study was undertaken to assess response to aryl hydrocarbon receptor antagonists in combination with standard-of-care drugs and investigational agents in solid tumor complex spheroid models. Complex spheroids include a stromal component modeled by human endothelial cells (HUVEC) and fibroblasts modeled by human mesenchymal stem cells (MSCs). The concentration ranges selected for each drug and investigational agent were based upon clinically achievable concentrations if the clinical Cmax of the agent was known.
Compounds. The drugs and investigational agents: BAY 2416964 (NSC825713), GNF351 (NSC835774), CH-223191 (NSC835775), CPI-455 (NSC825282), aza-TdCyd (NSC777586), decitabine (NSC127716), belinostat (NSC758774), entinostat (NSC756642), pevonedistat (NSC761192), tazemetostat (NSC777109), talazoparib (NSC765396), olaparib (NSC753686), selinexor (NSC780203), nedisertib (M3814, NSC802822), bortezomib (NSC756655), venetoclax (NSC766270), doxorubicin (NSC123127), elimusertib (BAY189344, NSC800525), ceralasertib (AZD6738, NSC777638), TAK-243 (NSC785004), alisertib (NSC759677), etoposide (NSC141540), topotecan (NSC609699), eribulin (NSC707389), gemcitabine (NSC613327), carboplatin (NSC241240), cisplatin (NSC119875), and SN-38 (NSC673596) were obtained from the National Cancer Institute (NCI) Developmental Therapeutics Program Chemical Repository (32). The FDA-approved anticancer drug set is available from the Developmental Therapeutics Program at https://dtp.cancer.gov/organization/dscb/obtaining/available plates.htm. […] The stock solutions were prepared in dimethyl sulfoxide (DMSO, Sigma-Aldrich, St. Louis, MO, cat. D2650), except for the platinum compounds which were prepared in saline (Quality Biological, Gaithersburg, MD, cat. 114-055-101), at 800-fold the tested concentration and stored at -70 degrees C prior to their use. All drugs and investigational agents were tested over a range starting from a high concentration at or near the clinical Cmax and decreasing in half-log increments. If the clinical Cmax for an agent had not been determined, the highest concentration tested was 10 microM (Table 1).
Cell Culture. All cells were maintained in an incubator at 37 degrees C and 5% CO2 with 95% humidity. The PDC lines were cultured according to standard operating procedures established by the NCI PDMR (https://pdmr.cancer.gov). Briefly, all PDCs were thawed and cultured in Matrigel-coated flasks prepared with a working solution of 1X Ham's F-12 nutrient mix, without supplementation (Invitrogen, Waltham, MA, cat. 11765054), 100 U/mL penicillin-streptomycin (Invitrogen, cat. 15140122), and 2.5% Matrigel (Corning Inc., Corning, NY, cat. 354248) for the first three passages. All PDCs were cultured in complete DMEM/F-12 media containing advanced DMEM/F-12 (Invitrogen, cat. 12634028), 4.9% defined fetal bovine serum, heat inactivated (HyClone Laboratories Inc., Logan, UT, cat. SH30070.03HI), 389 ng/mL hydrocortisone (Sigma-Aldrich, cat. H4001), 9.7 ng/mL human EGF recombinant protein (Invitrogen, cat. PHG0313), 23.4 microg/mL adenine (Sigma-Aldrich, cat. A2786), 97.3 U/mL penicillin-streptomycin (Invitrogen, cat. 15140122), 1.9 mM L-glutamine (Invitrogen, cat. 25030081), and 9.7 microM Y-27632 dihydrochloride (Tocris Bioscience, Bristol, United Kingdom, cat. 1254). The PDCs were cultured in complete DMEM/F12 media without 10 microM Y-27632 dihydrochloride for at least two passages prior to the screen. The established cell lines NCI-H1341 and […] were cultured in DMEM/F-12, HEPES (Invitrogen, cat. 11330032), 5% defined fetal bovine serum (HyClone Laboratories Inc., cat. SH30070.03), ITS premix universal culture supplement [insulin (5 microg/mL), transferrin (5 microg/mL), and selenious acid (5 ng/mL)] […]

[1] = second compound 0.1 µM, first compound 0.0316 µM
[2] = second compound 0.1 µM, first compound 0.1 µM
[3] = second compound 0.1 µM, first compound 0.316 µM
[4] = second compound 0.1 µM, first compound 1 µM
[5] = second compound 0.1 µM, first compound 3.16 µM
[6] = second compound 0.1 µM, first compound 10 µM
[7] = second compound 0.316 µM, first compound 0.0316 µM
[8] = second compound 0.316 µM, first compound 0.1 µM
[9] = second compound 0.316 µM, first compound 0.316 µM
[10] = second compound 0.316 µM, first compound 1 µM
[11] = second compound 0.316 µM, first compound 3.16 µM
[12] = second compound 0.316 µM, first compound 10 µM
[13] = second compound 1 µM, first compound 0.0316 µM
[14] = second compound 1 µM, first compound 0.1 µM
[15] = second compound 1 µM, first compound 0.316 µM
[16] = second compound 1 µM, first compound 1 µM
[17] = second compound 1 µM, first compound 3.16 µM
[18] = second compound 1 µM, first compound 10 µM
[19] = second compound 3.16 µM, first compound 0.0316 µM
[20] = second compound 3.16 µM, first compound 0.1 µM
[21] = second compound 3.16 µM, first compound 0.316 µM
[22] = second compound 3.16 µM, first compound 1 µM
[23] = second compound 3.16 µM, first compound 3.16 µM
[24] = second compound 3.16 µM, first compound 10 µM
[25] = second compound 10 µM, first compound 0.0316 µM
[26] = second compound 10 µM, first compound 0.1 µM
[27] = second compound 10 µM, first compound 0.316 µM
[28] = second compound 10 µM, first compound 1 µM
[29] = second compound 10 µM, first compound 3.16 µM
[30] = second compound 10 µM, first compound 10 µM

CCc1c2c(nc3ccc(O)cc13)-c1cc3c(c(=O)n1C2)COC(=O)[C@]3(O)CC + CC(CO)NC(=O)c1cc(-c2ccc(Cl)cc2)nn(-c2cnn(C)c2)c1=O
IC50 (second compound 0.1 µM): 0.0299 µM | IC50 (second compound 0.316 µM): > 0.3 µM | IC50 (second compound 1 µM): 0.138 µM | IC50 (second compound 3.16 µM): > 0.3 µM | IC50 (second compound 10 µM): > 0.3 µM | viability, T/C (second compound 0.1 µM, first compound 0.000949 µM): 83% | viability, T/C (second compound 0.1 µM, first compound 0.003 µM): 83.5% | viability, T/C (second compound 0.1 µM, first compound 0.00949 µM): 66% | viability, T/C (second compound 0.1 µM, first compound 0.03 µM): 51% | viability, T/C (second compound 0.1 µM, first compound 0.0949 µM): 48.2% | viability, T/C (second compound 0.1 µM, first compound 0.3 µM): 47.3% | viability, T/C (second compound 0.316 µM, first compound 0.000949 µM): 72.8% | viability, T/C (second compound 0.316 µM, first compound 0.003 µM): 79% | viability, T/C (second compound 0.316 µM, first compound 0.00949 µM): 67.9% | viability, T/C (second compound 0.316 µM, first compound 0.03 µM): 63.2% | viability, T/C (second compound 0.316 µM, first compound 0.0949 µM): 56.3% | viability, T/C (second compound 0.316 µM, first compound 0.3 µM): 58.8% | viability, T/C (second compound 1 µM, first compound 0.000949 µM): 73.4% | viability, T/C (second compound 1 µM, first compound 0.003 µM): 85.9% | viability, T/C (second compound 1 µM, first compound 0.00949 µM): 56.6% | viability, T/C (second compound 1 µM, first compound 0.03 µM): 67% | viability, T/C (second compound 1 µM, first compound 0.0949 µM): 54% | viability, T/C (second compound 1 µM, first compound 0.3 µM): 42% | viability, T/C (second compound 3.16 µM, first compound 0.000949 µM): 74.1% | viability, T/C (second compound 3.16 µM, first compound 0.003 µM): 73.8% | viability, T/C (second compound 3.16 µM, first compound 0.00949 µM): 58% | viability, T/C (second compound 3.16 µM, first compound 0.03 µM): 55.1% | viability, T/C (second compound 3.16 µM, first compound 0.0949 µM): 49.1% | viability, T/C (second compound 3.16 µM, first compound 0.3 µM): 50.5% | viability, T/C (second compound 10 µM, first compound 0.000949 µM): 71.6% | viability, T/C (second compound 10 µM, first compound 0.003 µM): 65.8% | viability, T/C (second compound 10 µM, first compound 0.00949 µM): 55.5% | viability, T/C (second compound 10 µM, first compound 0.03 µM): 58.3% | viability, T/C (second compound 10 µM, first compound 0.0949 µM): 45.7% | viability, T/C (second compound 10 µM, first compound 0.3 µM): 54.7%

Nc1ccn(C2OC(CO)C(O)C2(F)F)c(=O)n1 (stereo not given) + CC(CO)NC(=O)c1cc(-c2ccc(Cl)cc2)nn(-c2cnn(C)c2)c1=O
IC50 (second compound 0.1 µM): > 10 µM | IC50 (second compound 0.316 µM): 2.07 µM | IC50 (second compound 1 µM): > 10 µM | IC50 (second compound 3.16 µM): 3.71 µM | IC50 (second compound 10 µM): 5.27 µM | viability, T/C [1]: 59% | viability, T/C [2]: 55% | viability, T/C [3]: 52.6% | viability, T/C [4]: 60.9% | viability, T/C [5]: 54.9% | viability, T/C [6]: 63.9% | viability, T/C [7]: 56.5% | viability, T/C [8]: 59.8% | viability, T/C [9]: 46.3% | viability, T/C [10]: 50.3% | viability, T/C [11]: 54.9% | viability, T/C [12]: 46.1% | viability, T/C [13]: 53.1% | viability, T/C [14]: 60.3% | viability, T/C [15]: 59% | viability, T/C [16]: 61.2% | viability, T/C [17]: 53.6% | viability, T/C [18]: 55.3% | viability, T/C [19]: 48.4% | viability, T/C [20]: 58.7% | viability, T/C [21]: 56.1% | viability, T/C [22]: 59.4% | viability, T/C [23]: 47.8% | viability, T/C [24]: 42.4% | viability, T/C [25]: 45.3% | viability, T/C [26]: 58.1% | viability, T/C [27]: 57.4% | viability, T/C [28]: 59.8% | viability, T/C [29]: 54.5% | viability, T/C [30]: 44%

O=C(c1cc(Cc2n[nH]c(=O)c3ccccc23)ccc1F)N1CCN(C(=O)C2CC2)CC1 + CC(CO)NC(=O)c1cc(-c2ccc(Cl)cc2)nn(-c2cnn(C)c2)c1=O
IC50 (second compound 0.1 µM): > 10 µM | IC50 (second compound 0.316 µM): > 10 µM | IC50 (second compound 1 µM): > 10 µM | IC50 (second compound 3.16 µM): > 10 µM | IC50 (second compound 10 µM): > 10 µM | viability, T/C [1]: 84.4% | viability, T/C [2]: 95.4% | viability, T/C [3]: 100% | viability, T/C [4]: 82.1% | viability, T/C [5]: 88.2% | viability, T/C [6]: 78.8% | viability, T/C [7]: 79.8% | viability, T/C [8]: 77.9% | viability, T/C [9]: 75.8% | viability, T/C [10]: 81.8% | viability, T/C [11]: 77.7% | viability, T/C [12]: 75.8% | viability, T/C [13]: 79.7% | viability, T/C [14]: 99.7% | viability, T/C [15]: 83.8% | viability, T/C [16]: 67.8% | viability, T/C [17]: 78% | viability, T/C [18]: 103% | viability, T/C [19]: 76.9% | viability, T/C [20]: 79.3% | viability, T/C [21]: 79.8% | viability, T/C [22]: 92.2% | viability, T/C [23]: 68.5% | viability, T/C [24]: 82.5% | viability, T/C [25]: 67.8% | viability, T/C [26]: 67.3% | viability, T/C [27]: 76.2% | viability, T/C [28]: 81.7% | viability, T/C [29]: 81.2% | viability, T/C [30]: 60.6%
